Where “and” joins values, the source holds several entries; their conditions need not be identical. Equal entries are not always repeated. Records with an inconclusive call do not appear.
Tested on: BDF1 mice, s.c. Lewis lung carcinoma, T/C %
Test: NCI In Vivo Anticancer Drug Screen. Data for tumor model Lewis Lung Carcinoma (subcutaneous) in B6D2F1 (BDF1) mice
In short: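 Readout: survival or tumor size, expressed as treated (T) over vehicle control (C). Transplantable tumor implanted in mice; compound given to the treated group.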

[1] = endpoint: median survival time, dose: 100.0 mg/kg/injection, schedule: Q01DX009 (ip), vehicle: saline with Tween-80, higher = longer survival
[2] = endpoint: median survival time, dose: 200.0 mg/kg/injection, schedule: Q01DX009 (ip), vehicle: saline with Tween-80, higher = longer survival

## CC(=O)NNC(=O)c1ccccc1CO
endpoint: median survival time, dose: 25.0 mg/kg/injection, schedule: Q01DX009 (ip), vehicle: saline with Tween-80, higher = longer survival
  T/C: 95 % of control
endpoint: median survival time, dose: 50.0 mg/kg/injection, schedule: Q01DX009 (ip), vehicle: saline with Tween-80, higher = longer survival
  T/C: 95 % of control
[1]
  T/C: 98 % of control
[2]
  T/C: 93 % of control

## CCCCCCCCCCCC(c1ccccc1)[N+](C)(C)C (configuration not stated)
endpoint: median survival time, dose: 0.5 mg/kg/injection, schedule: Q01DX009 (ip), vehicle: saline, higher = longer survival
  T/C: 102 % of control
endpoint: median survival time, dose: 1.0 mg/kg/injection, schedule: Q01DX009 (ip), vehicle: saline, higher = longer survival
  T/C: 96 % of control
endpoint: median survival time, dose: 2.0 mg/kg/injection, schedule: Q01DX009 (ip), vehicle: saline, higher = longer survival
  T/C: 93 % of control

## O=C(/C=C/c1ccc(O)c(O)c1)c1ccc(O)c(O)c1O
endpoint: mean tumor weight, dose: 12.5 mg/kg/injection, schedule: Q01DX011 (ip), vehicle: saline, higher = larger tumour
  T/C: 57 % of control
endpoint: mean tumor weight, dose: 25.0 mg/kg/injection, schedule: Q01DX011 (ip), vehicle: saline, higher = larger tumour
  T/C: 89 % of control
endpoint: mean tumor weight, dose: 50.0 mg/kg/injection, schedule: Q01DX011 (ip), vehicle: saline, higher = larger tumour
  T/C: 64 % of control
endpoint: mean tumor weight, dose: 100.0 mg/kg/injection, schedule: Q01DX011 (ip), vehicle: saline, higher = larger tumour
  T/C: 59 % of control

## [CH3][Sn]([CH3])([CH3])[O]C(=O)CCl
endpoint: median survival time, dose: 0.19 mg/kg/injection, schedule: Q01DX009 (ip), vehicle: saline, higher = longer survival
  T/C: 100 % of control
endpoint: median survival time, dose: 0.38 mg/kg/injection, schedule: Q01DX009 (ip), vehicle: saline, higher = longer survival
  T/C: 104 % of control
endpoint: median survival time, dose: 0.75 mg/kg/injection, schedule: Q01DX009 (ip), vehicle: saline, higher = longer survival
  T/C: 88 % of control and 97 % of control

## C[C@]12C=CC(=O)C=C1CC[C@@H]1[C@@H]2[C@@H](O)C[C@@]2(C)[C@H]1CC[C@]2(O)C(=O)COC(=O)C1CCCC1
endpoint: mean tumor weight, dose: 9.0 mg/kg/injection, schedule: Q01DX011 (sc), vehicle: steriod suspending solution, higher = larger tumour
  T/C: 68 % of control
endpoint: mean tumor weight, dose: 13.0 mg/kg/injection, schedule: Q01DX011 (sc), vehicle: steriod suspending solution, higher = larger tumour
  T/C: 51 % of control
endpoint: mean tumor weight, dose: 20.0 mg/kg/injection, schedule: Q01DX011 (sc), vehicle: steriod suspending solution, higher = larger tumour
  T/C: 77 % of control
endpoint: mean tumor weight, dose: 30.0 mg/kg/injection, schedule: Q01DX011 (sc), vehicle: steriod suspending solution, higher = larger tumour
  T/C: 52 % of control

## O=[N+]([O-])c1ccc(CSc2ncnc3c2ncn3C2OC(CO)C(O)C2O)cc1 (configuration not stated)
endpoint: median survival time, dose: 0.3 mg/kg/injection, schedule: Q01DX010 (ip), vehicle: saline with Tween-80, higher = longer survival
  T/C: 93 % of control
endpoint: median survival time, dose: 3.0 mg/kg/injection, schedule: Q01DX010 (ip), vehicle: saline with Tween-80, higher = longer survival
  T/C: 97 % of control
endpoint: median survival time, dose: 30.0 mg/kg/injection, schedule: Q01DX010 (ip), vehicle: saline with Tween-80, higher = longer survival
  T/C: 106 % of control

## NCCCNCCSP(=O)(O)O
endpoint: median survival time, dose: 300.0 mg/kg/injection, schedule: Q01DX001 (ip), vehicle: saline, higher = longer survival
  T/C: 93 % of control and 100 % of control
endpoint: median survival time, dose: 500.0 mg/kg/injection, schedule: Q01DX001 (ip), vehicle: saline, higher = longer survival
  T/C: 77 % of control and 78 % of control

## COc1ccc2c(Cc3ccccc3)cncc2c1O
endpoint: median survival time, dose: 12.5 mg/kg/injection, schedule: Q01DX009 (ip), vehicle: Klucel (hydroxypropylcellulose) (HPC), higher = longer survival
  T/C: 90 % of control
endpoint: median survival time, dose: 25.0 mg/kg/injection, schedule: Q01DX009 (ip), vehicle: Klucel (hydroxypropylcellulose) (HPC), higher = longer survival
  T/C: 101 % of control
endpoint: median survival time, dose: 50.0 mg/kg/injection, schedule: Q01DX009 (ip), vehicle: Klucel (hydroxypropylcellulose) (HPC), higher = longer survival
  T/C: 91 % of control
endpoint: median survival time, dose: 100.0 mg/kg/injection, schedule: Q01DX009 (ip), vehicle: Klucel (hydroxypropylcellulose) (HPC), higher = longer survival
  T/C: 101 % of control

## CC(=O)OC(C)(C)/C=C/C(=O)[C@](C)(O)[C@H]1[C@H](O)C[C@@]2(C)[C@@H]3CC=C4[C@@H](C[C@H](O)C(=O)C4(C)C)[C@]3(CO)C(=O)C[C@]12C
endpoint: mean tumor weight, dose: 0.57 mg/kg/injection, schedule: Q01DX011 (ip), vehicle: saline, higher = larger tumour
  T/C: 93 % of control

## c1ccc(C2=C(c3ccccc3)C(c3ccccc3)=C(c3ccccc3)C2)cc1
endpoint: mean tumor weight, dose: 118.0 mg/kg/injection, schedule: Q01DX011 (ip), vehicle: other, higher = larger tumour
  T/C: 89 % of control
endpoint: mean tumor weight, dose: 178.0 mg/kg/injection, schedule: Q01DX011 (ip), vehicle: other, higher = larger tumour
  T/C: 65 % of control
endpoint: mean tumor weight, dose: 250.0 mg/kg/injection, schedule: Q01DX011 (ip), vehicle: other, higher = larger tumour
  T/C: 92 % of control
endpoint: mean tumor weight, dose: 266.0 mg/kg/injection, schedule: Q01DX011 (ip), vehicle: other, higher = larger tumour
  T/C: 84 % of control
endpoint: mean tumor weight, dose: 400.0 mg/kg/injection, schedule: Q01DX011 (ip), vehicle: other, higher = larger tumour
  T/C: 109 % of control
endpoint: mean tumor weight, dose: 750.0 mg/kg/injection, schedule: Q01DX011 (ip), vehicle: other, higher = larger tumour
  T/C: 124 % of control
endpoint: mean tumor weight, dose: 1000.0 mg/kg/injection, schedule: Q01DX011 (ip), vehicle: other, higher = larger tumour
  T/C: 60 % of control

## Cc1cc(C)nc(NS(=O)(=O)c2ccc(N=Nc3nc4[nH]c(N)nc(=S)c4[nH]3)cc2)n1
endpoint: median survival time, dose: 0.78 mg/kg/injection, schedule: Q01DX009 (ip), vehicle: Klucel (hydroxypropylcellulose) (HPC), higher = longer survival
  T/C: 96 % of control
endpoint: median survival time, dose: 1.56 mg/kg/injection, schedule: Q01DX009 (ip), vehicle: Klucel (hydroxypropylcellulose) (HPC), higher = longer survival
  T/C: 108 % of control

## COC(=O)c1ccccc1NC(c1ccccn1)c1ccc2cccnc2c1O (configuration not stated)
endpoint: mean tumor weight, dose: 10.0 mg/kg/injection, schedule: Q01DX011 (ip), vehicle: carboxymethylcellulose (CMC), higher = larger tumour
  T/C: 55 % of control
endpoint: mean tumor weight, dose: 25.0 mg/kg/injection, schedule: Q01DX011 (ip), vehicle: carboxymethylcellulose (CMC), higher = larger tumour
  T/C: 111 % of control
endpoint: mean tumor weight, dose: 37.0 mg/kg/injection, schedule: Q01DX011 (ip), vehicle: carboxymethylcellulose (CMC), higher = larger tumour
  T/C: 115 % of control
endpoint: mean tumor weight, dose: 50.0 mg/kg/injection, schedule: Q01DX011 (ip), vehicle: carboxymethylcellulose (CMC), higher = larger tumour
  T/C: 56 % of control
endpoint: mean tumor weight, dose: 62.0 mg/kg/injection, schedule: Q01DX011 (ip), vehicle: carboxymethylcellulose (CMC), higher = larger tumour
  T/C: 30 % of control
endpoint: mean tumor weight, dose: 70.0 mg/kg/injection, schedule: Q01DX011 (ip), vehicle: carboxymethylcellulose (CMC), higher = larger tumour
  T/C: 78 % of control
endpoint: mean tumor weight, dose: 75.0 mg/kg/injection, schedule: Q01DX011 (ip), vehicle: carboxymethylcellulose (CMC), higher = larger tumour
  T/C: 86 % of control
endpoint: mean tumor weight, dose: 125.0 mg/kg/injection, schedule: Q01DX011 (ip), vehicle: carboxymethylcellulose (CMC), higher = larger tumour
  T/C: 33 % of control
endpoint: mean tumor weight, dose: 150.0 mg/kg/injection, schedule: Q01DX011 (ip), vehicle: carboxymethylcellulose (CMC), higher = larger tumour
  T/C: 80 % of control
endpoint: mean tumor weight, dose: 250.0 mg/kg/injection, schedule: Q01DX011 (ip), vehicle: carboxymethylcellulose (CMC), higher = larger tumour
  T/C: 76 % of control
endpoint: mean tumor weight, dose: 300.0 mg/kg/injection, schedule: Q01DX011 (ip), vehicle: carboxymethylcellulose (CMC), higher = larger tumour
  T/C: 62 % of control
endpoint: mean tumor weight, dose: 500.0 mg/kg/injection, schedule: Q01DX011 (ip), vehicle: carboxymethylcellulose (CMC), higher = larger tumour
  T/C: 53 % of control

## CN(CCCOS(C)(=O)=O)CCCOS(C)(=O)=O
endpoint: mean tumor weight, dose: 5.0 mg/kg/injection, schedule: Q01DX011 (ip), vehicle: saline, higher = larger tumour
  T/C: 85 % of control
endpoint: mean tumor weight, dose: 10.0 mg/kg/injection, schedule: Q01DX011 (ip), vehicle: saline, higher = larger tumour
  T/C: 78 % of control
endpoint: mean tumor weight, dose: 20.0 mg/kg/injection, schedule: Q01DX011 (ip), vehicle: saline, higher = larger tumour
  T/C: 49 % of control
endpoint: mean tumor weight, dose: 40.0 mg/kg/injection, schedule: Q01DX011 (ip), vehicle: saline, higher = larger tumour
  T/C: 59 % of control

## C[C@]12C=CC(=O)C=C1CC[C@@H]1[C@@H]2[C@@H](O)C[C@@]2(C)[C@H]1CC[C@]2(O)C(=O)CO
endpoint: mean tumor weight, dose: 12.5 mg/kg/injection, schedule: Q01DX011 (sc), vehicle: steriod suspending solution, higher = larger tumour
  T/C: 81 % of control
endpoint: mean tumor weight, dose: 25.0 mg/kg/injection, schedule: Q01DX011 (sc), vehicle: steriod suspending solution, higher = larger tumour
  T/C: 72 % of control
endpoint: mean tumor weight, dose: 50.0 mg/kg/injection, schedule: Q01DX011 (sc), vehicle: steriod suspending solution, higher = larger tumour
  T/C: 51 % of control
endpoint: mean tumor weight, dose: 100.0 mg/kg/injection, schedule: Q01DX011 (sc), vehicle: steriod suspending solution, higher = larger tumour
  T/C: 14 % of control
endpoint: median survival time, dose: 40.0 mg/kg/injection, schedule: Q02DX009 (ip), vehicle: Klucel (hydroxypropylcellulose) (HPC), higher = longer survival
  T/C: 99 % of control
endpoint: median survival time, dose: 80.0 mg/kg/injection, schedule: Q02DX009 (ip), vehicle: Klucel (hydroxypropylcellulose) (HPC), higher = longer survival
  T/C: 93 % of control
endpoint: median survival time, dose: 320.0 mg/kg/injection, schedule: Q02DX009 (ip), vehicle: Klucel (hydroxypropylcellulose) (HPC), higher = longer survival
  T/C: 86 % of control

## Nc1nc(N)nc(N)n1
[1]
  T/C: 103 % of control
[2]
  T/C: 95 % of control
endpoint: median survival time, dose: 400.0 mg/kg/injection, schedule: Q01DX009 (ip), vehicle: saline with Tween-80, higher = longer survival
  T/C: 98 % of control

## C=C1c2[nH]c3ccccc3c2CN2CCC1/C(=C/C)C2 (configuration not stated)
endpoint: mean tumor weight, dose: 0.5 mg/kg/injection, schedule: Q01DX011 (ip), vehicle: saline, higher = larger tumour
  T/C: 104 % of control
endpoint: mean tumor weight, dose: 1.0 mg/kg/injection, schedule: Q01DX011 (ip), vehicle: saline, higher = larger tumour
  T/C: 74 % of control
endpoint: mean tumor weight, dose: 2.0 mg/kg/injection, schedule: Q01DX011 (ip), vehicle: saline, higher = larger tumour
  T/C: 102 % of control

## C=C1C(=O)O[C@H]2C1[C@H](OC(=O)/C(C)=C\COC(C)=O)C[C@]1(CO1)[C@@H]1[C@H](O)[C@H]3O[C@@]3(C)[C@@H]12 (some centres not stated)
endpoint: median survival time, dose: 3.12 mg/kg/injection, schedule: Q01DX009 (ip), vehicle: other, higher = longer survival
  T/C: 86 % of control
endpoint: median survival time, dose: 6.25 mg/kg/injection, schedule: Q01DX009 (ip), vehicle: other, higher = longer survival
  T/C: 89 % of control
endpoint: median survival time, dose: 12.5 mg/kg/injection, schedule: Q01DX009 (ip), vehicle: other, higher = longer survival
  T/C: 97 % of control
endpoint: median survival time, dose: 25.0 mg/kg/injection, schedule: Q01DX009 (ip), vehicle: other, higher = longer survival
  T/C: 99 % of control

## CCOc1ccc(Nc2ncnc3nc[nH]c23)cc1CN(CCCl)CCCl
endpoint: mean tumor weight, dose: 1.2 mg/kg/injection, schedule: Q01DX011 (ip), vehicle: other, higher = larger tumour
  T/C: 54 % of control
endpoint: mean tumor weight, dose: 2.3 mg/kg/injection, schedule: Q01DX011 (ip), vehicle: other, higher = larger tumour
  T/C: 46 % of control
